What was measured:
Format in all cases: cell-based
[1] = tested on: U-2 OS cells; assay: Sister chromatid exchange (SCE) assay in U-2 OS; settings: topotecan 2 μg/mL 1 hr
Method: For the SCE assay, 20-25% confluent cells were cultured in fresh media supplemented with 7.5 μM […] (BrdU) and 2.5 μM BrdC (BrdU:BrdC 3:1 ratio; Sigma-Aldrich) for 32-48 hours depending on the mitotic index of the cell line. Cell cultures were treated with 100 ng/mL colcemid for the last 4 hours of incubation to accumulate mitotic cells. Cells were harvested by trypsinisation and centrifugation, and then incubated in hypotonic buffer for 10 minutes at 37° C. Swollen cells were fixed by gradually adding 1 mL of fresh ice-cold fixative (methanol/acetic acid 3:1), mixing by inversion and incubating on ice for 5 minutes. Cells were then collected by centrifugation at 1200 rpm for 8 minutes. 10 mL ice cold fixative was added to resuspend the cells followed by 5 minutes incubation on ice and centrifugation at 1200 rpm for 8 minutes. This fixing step was repeated another two times. Fixed cells were then resuspended in 500-1000 μL of ice-cold fixative, and dropped onto clean, dry microscope slides (HDS Surefrost, 50-100 μL cell solution per slide). To drop chromosomes, a clean dry slide was held over a 75° C. water bath, and the cell solution was dropped from a pipette onto the slide, which was quickly flipped and held close to the surface of the water bath for 5 seconds. […]

[2] = tested on: U-2 OS cells; assay: Topotecan dose-response of cell proliferation after siRNA transfection (IncuCyte); settings: topotecan 0.0039-1 μg/mL, 180 hours, compared to scrambled control
Method: U-2 OS cells were plated in a 96-well plate at 4000 cells per well. 24 hours following plating, cells were transfected with either scrambled or ZNF827 siRNAs (Table 2) using Lipofectamine RNAiMAX transfection reagent (ThermoFisher Scientific). 24 hours post siRNA transfection, cells were treated with topotecan at a range of concentrations including 0.0039, 0.0078, 0.0156, 0.03125, 0.0625, 0.125, 0.25, 0.5 and 1 μg/mL in triplicates. DMSO was used as untreated control. Immediately after treatment addition, cells were imaged using the IncuCyte® live cell imaging system at 2-hour intervals for 180 hours. Cell proliferation was measured by phase object confluence calculated by the IncuCyte® analysis software. For IC50s, cell proliferation data were analysed in GraphPad Prism 8 to obtain area under curve (AUC), followed by normalisation and non-linear regression using the log(inhibitor) vs. normalised response -variable slope' function.

[3] = tested on: HT1080 FUCCI cells; assay: Live cell imaging of cell cycle in FUCCI cells
Method: To further characterise the impact of ZNF827 on the cell cycle, live cell imaging was conducted with HT1080 FUCCI cells, to monitor cell progression through the cell cycle in real-time following ZNF827 depletion. The FUCCI (fluorescence ubiquitination cell cycle indicator) cells were stably transfected with fluorescence-labelled cell cycle-regulated proteins, geminin (labelled by GFP) and Cdt1 (labelled by RFP), which are only expressed during specific phases of the cell cycle (FIG. 9c). Their expressions are used to classify cells by cell cycle phase in a live cell setting.
HT1080 FUCCI cells were seeded in glass bottom 12-well plates (MakTek Corporation) the day before imaging at 30% confluency, to ensure that cells were actively cycling for the duration of the experiment. Media was replaced with phenol red free DMEM (Gibco) supplemented with 10% FCS and drug treatment immediately before transferring the plate to the microscope chamber. Imaging was performed on the Cell Observer Widefield Microscope (Zeiss) using a 20× objective at 37° C. with 10% CO2 in a XLmulti S1 full enclosure chamber. Cells were incubated in the XLmulti S1 full enclosure chamber for 2 hours prior to imaging. Three to four positions per well were captured with AxioCam (Zeiss) 506 Mono using ZEN software (Carl Zeiss) with images taken every 6 minutes for 60 hours. More than 15 cells were analysed at each position for each condition to confirm reproducibility.

[4] = 72 hr siRNA knockdown in conjunction with topotecan 2 μg/mL 1 hr

Molecule	sister chromatid exchanges (SCEs) [1]	sensitivity to topotecan treatment (cell proliferation dose-response) [2]	G1 duration / G1 arrest ([3]; 72 hr siRNA knockdown alone)	S/G2-M duration / G2/M arrest ([3]; 72 hr siRNA knockdown alone)	G1 duration / G1 arrest [3, 4]	S/G2-M duration / G2/M arrest [3, 4]
CC[C@@]1(O)C(=O)OCc2c1cc1n(c2=O)Cc2cc3c(CN(C)C)c(O)ccc3nc2-1 [topotecan]	drastic induction of SCEs					
siZNF827: Stealth RNAi siRNA ZNF827HSS135819 duplex oligoribonucleotides (Invitrogen), SEQ ID NO: 12 and 13 (chain 1 GGGCAGUCUUCUGGCUGAGAAAUCA; chain 2 UGAUUUCUCAGCCAGAAGACUGCCC; listed as RNA, further chemistry not given here)		markedly increased sensitivity to topotecan treatment	strong G1 arrest comparable to topotecan treatment	no impact on G2/M by itself	further exacerbated G1 arrest	significant decrease in topotecan induced G2/M arrest

From US20220305003A1, “METHODS OF TREATING CANCER WITH AN INHIBITOR OF ZNF827” (CHILDREN'S MEDICAL RESEARCH INSTITUTE, priority 2019, published 2022)
